Test results published in US9758480B2, “1-(cycloalkyl-carbonyl)proline derivative” (SUMITOMO DAINIPPON PHARMA CO., LTD., priority 2012, dated 2017).
Counter-ions that a name gives are not always drawn.

Key:
[1] = tested on: endogenous coagulation pathway; assay: Activated partial thromboplastin time (aPTT) of blood sample in rabbit antithrombotic test; format: in vivo; settings: i.v.
Experimental: In order to measure the activated partial thromboplastin time (aPTT) of the blood sample, which was to be used as an indicator of an endogenous coagulation pathway, 2 minutes after the administration of the test agent or the vehicle, blood was collected, and plasma was then prepared using 3.2% sodium citrate. The prepared plasma was incubated at 37° C. for 7 minutes, and an STA reagent Cephascreen (used for aPTT measurement; manufactured by Roche Diagnostics) was added in an equal amount to the resulting plasma, and the obtained mixture was further incubated for 3 minutes. Thereafter, STA calcium chloride (manufactured by Roche Diagnostics) was added in an equal amount to the resultant, and the time required until coagulation was then measured.

[2] = tested on: rabbit model with venous thrombus; assay: Rabbit in vivo antithrombotic action evaluation test (venous thrombus model), thrombus weight; settings: i.v.
Text: A rabbit model with venous thrombus was produced by modifying the report of Wienen et al. (Wienen W. et al., J. Thromb. Haemost. 5:1237-1242 (2007)). A male rabbit (JW, 2-4 kg) was narcotized by inhalation of isoflurane (ISOFLU®, manufactured by DS Pharma Animal Health) (inductive anesthesia: 4%, continuous anesthesia: 1.5% to 2.5%). For intravenous administration of a test agent and blood collection, catheters were inserted into the left femoral vein and the left femoral artery. The left external jugular vein was exposed (2 cm) from a branch of the facial vein, the microvascular branch was then ligated, and a catheter was then inserted into the posterior facial vein. The external jugular vein (2 cm) exposed from each of an anterior facial vein branch and a facial vein branch was ligated with an artery clamp, and blood was then removed from a catheter left in the posterior facial vein. Blood in the blood vessel was washed with a normal saline, and 0.5% polidocanol (manufactured by Sigma) was injected into the blood vessel. It was then left for 5 minutes, so that the occurrence of a disorder in vascular endothelium was provoked. Thereafter, 0.5% polidocanol was removed, the inside of the blood vessel was then washed with a normal saline, and the artery clamp was then removed. The external jugular vein (2 cm) exposed from the facial vein branch, together with an injection needle 21G (manufactured by Terumo), was ligated with a silk thread, so that the inner diameter of the blood vessel was reduced to 0.8 mm. Twenty-five minutes after recirculation of the blood flow, the external jugular vein (2 cm) exposed from the facial vein branch was excised, and the wet weight and dry weight of a thrombus formed in the blood vessel were measured. A test agent or a vehicle was administered to the rabbit 2 minutes before recirculation of the blood flow.

human FXIa = human FXIa (Homo sapiens (Human), UniProt P03951); assay: In vitro activated factor XI (FXIa) inhibition test; format: biochemical; settings: 0.35 μg/mL human FXIa, substrate S-2366 300 μmol/L, 37° C., 10 minutes, OD 405 nm; read-out: FXIa inhibitory activity IC50
Experimental: To the substrate, S-2366 (pyroGlu-Pro-Arg-pNA.HCl) was added to a final concentration of 300 μmol/L. After the reaction had progressed, the absorbance at OD 405 nm was measured.

[3] = Ester metabolism stabilization test: human liver stabilization test; format: in vitro ADME; settings: human liver S9, NADPH, 37° C., 30 minutes
Experimental: A reaction solution prepared by mixing 5 μL of human liver S9 (manufactured by Xenotech, 20 mg/mL), 20 μL of 500 mmol/L Kpi (pH7.4), 40 μL of 5 mmol/L NADPH (manufactured by Oriental Yeast Co., Ltd.) aqueous solution, and 133 μL of ion exchange water was added to 2 μL of a DMSO solution containing 100 μmol/L test substance, and the thus obtained mixture was then incubated at 37° C. for 30 minutes. After completion of the incubation, 600 μL of acetonitrile was added to the reaction solution, so that the metabolic reaction was terminated. The residual percentage of the test substance was measured using LC (LC-20A manufactured by Shimadzu Corporation) and -MS (API4000 manufactured by AB Sciex). • (2) Stabilization in Human Plasma Test

[4] = Ester metabolism stabilization test: stabilization in human plasma test; format: in vitro ADME; settings: 37° C., 30 minutes
Experimental: 198 μL of human plasma (manufactured by Cosmo Bio) was added to 2 μL of a DMSO solution containing 100 μmol/L test substance, and the obtained mixture was then incubated at 37° C. for 30 minutes. After completion of the incubation, 600 μL of acetonitrile was added to the reaction solution, so that the metabolic reaction was terminated. The residual percentage of the test substance was measured using LC (LC-20A manufactured by Shimadzu Corporation) and -MS (API4000 manufactured by AB Sciex).

Chain of human FXIa (P03951 388-625): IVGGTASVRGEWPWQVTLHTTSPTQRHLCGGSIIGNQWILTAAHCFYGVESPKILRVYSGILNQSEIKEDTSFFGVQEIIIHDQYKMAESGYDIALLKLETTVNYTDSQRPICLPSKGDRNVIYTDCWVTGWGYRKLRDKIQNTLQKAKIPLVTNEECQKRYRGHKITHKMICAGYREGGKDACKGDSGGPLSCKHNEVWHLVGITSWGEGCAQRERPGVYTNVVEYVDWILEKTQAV
Chain of human FXIa (P03951 19-387 partner): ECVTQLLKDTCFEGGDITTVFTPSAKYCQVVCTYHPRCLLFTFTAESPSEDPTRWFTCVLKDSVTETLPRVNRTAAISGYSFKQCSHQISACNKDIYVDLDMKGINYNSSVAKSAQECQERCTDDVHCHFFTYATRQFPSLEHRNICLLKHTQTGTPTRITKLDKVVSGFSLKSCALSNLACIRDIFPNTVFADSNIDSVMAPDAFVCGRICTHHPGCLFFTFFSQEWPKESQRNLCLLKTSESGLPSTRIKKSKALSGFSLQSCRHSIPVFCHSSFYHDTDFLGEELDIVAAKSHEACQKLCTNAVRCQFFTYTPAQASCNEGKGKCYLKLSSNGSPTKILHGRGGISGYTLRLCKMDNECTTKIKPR

Structure (SMILES)	IC50 (human FXIa) [µM]	Residual percentage (%) Human liver S9 [3] [%]	also measured
N[C@H](CF)[C@H]1CC[C@H](C(=O)N2CCC(C3CCCCC3)[C@H]2C(=O)Nc2ccc3oc(C(=O)O)cc3c2)CC1 (single isomer, unassigned) [Example 53]			aPTT (% vehicle) ([1]; dose 0.1 mg/kg): 103 % vehicle; aPTT (% vehicle) ([1]; dose 0.3 mg/kg): 117 % vehicle; aPTT (% vehicle) ([1]; dose 1.0 mg/kg): 140 % vehicle; aPTT (% vehicle) ([1]; dose 3.0 mg/kg): 166 % vehicle; Thrombus (% inhibition) ([2]; dose 0.1 mg/kg): 25 % inhibition; Thrombus (% inhibition) ([2]; dose 0.3 mg/kg): 56 % inhibition; Thrombus (% inhibition) ([2]; dose 1.0 mg/kg): 79 % inhibition; Thrombus (% inhibition) ([2]; dose 3.0 mg/kg): 80 % inhibition
CN(C(=O)C1C(c2ccccc2)CCN1C(=O)[C@H]1CC[C@H](CN)CC1)c1ccc2[nH]c(C(=O)O)cc2c1 (stereo partly drawn) [Example 5, 5-{cis-1-[trans-4-(Aminomethyl)cyclohexanecarbonyl]-N-methyl-3-phenylpyrrolidine-2-carboxamide}-1H-indole-2-carboxylic acid trifluoroacetate]	0.125		
NC[C@H]1CC[C@H](C(=O)N2CCC(c3ccccc3)[C@H]2C(=O)Nc2ccc3[nH]c(C(=O)O)cc3c2)CC1 (stereo partly shown) [Example 23]	0.009		
NC(CF)[C@H]1CC[C@H](C(=O)N2CC[C@@H](c3ccc(F)cc3)[C@H]2C(=O)Nc2ccc3[nH]c(C(=O)O)cc3c2)CC1 (stereo partly shown) [Example 38]	0.03		
COCCCOC(=O)c1cc2cc(NC(=O)[C@@H]3[C@H](C4CCCCC4)CCN3C(=O)[C@H]3CC[C@H]([C@H](N)CF)CC3)ccc2o1 [Example 82]		5.8	
N[C@H](CF)[C@H]1CC[C@H](C(=O)N2CC[C@@H](C3CCCCC3)[C@H]2C(=O)Nc2ccc3[nH]c(C(=O)O)cc3c2)CC1 [Example 99]	0.006		
Cc1c(C(=O)O)[nH]c2ccc(NC(=O)[C@@H]3[C@H](C4CCCCC4)CCN3C(=O)[C@H]3CC[C@H]([C@H](N)CF)CC3)cc12 [Example 113]	0.145		
CC(OC(=O)OC1CCCCC1)OC(=O)c1cc2cc(NC(=O)[C@@H]3[C@@H](c4ccccc4)CCN3C(=O)[C@H]3CC[C@H]([C@H](N)CF)CC3)ccc2[nH]1 (stereo partly shown) [Example 120]		4.9	
CCC(=O)OC(OC(=O)c1cc2cc(NC(=O)[C@@H]3[C@@H](c4ccccc4)CCN3C(=O)[C@H]3CC[C@H]([C@H](N)CF)CC3)ccc2[nH]1)C(C)C (stereo partly shown) [Example 125]		5.6	
CC(C)OC(=O)OC(C)OC(=O)c1cc2cc(NC(=O)[C@@H]3[C@H](C4CCCCC4)CCN3C(=O)[C@H]3CC[C@H]([C@H](N)CF)CC3)ccc2[nH]1 (stereo partly shown) [Example 128]		47	
N[C@H](CF)[C@H]1CC[C@H](C(=O)N2CC[C@@H](C3CCCCC3)[C@H]2C(=O)Nc2ccc3oc(C(=O)OCC4CCOCC4)cc3c2)CC1 [Example 141]		17	
COc1ccc([C@H]2CCN(C(=O)[C@H]3CC[C@H]([C@H](N)CF)CC3)[C@@H]2C(=O)Nc2ccc3[nH]c(C(=O)O)cc3c2)cc1 [Example 170]	0.076		
Cc1oc(=O)oc1COC(=O)c1cc2cc(NC(=O)[C@@H]3[C@@H](c4ccccc4)CCN3C(=O)[C@H]3CC[C@H]([C@H](N)CF)CC3)ccc2[nH]1 [Example 171]		18	
N[C@H](CF)[C@H]1CC[C@H](C(=O)N2CC[C@H](c3ccc(F)cc3)[C@H]2C(=O)Nc2ccc3[nH]c(C(=O)O)cc3c2)CC1 [Example 178]	0.033		
N[C@H](CF)[C@H]1CC[C@H](C(=O)N2CC[C@@H](c3ccccc3)[C@H]2C(=O)Nc2ccc3[nH]c(C(=O)O)c(Cl)c3c2)CC1 [Example 186]	0.06		
COC1CCC([C@@H]2CCN(C(=O)[C@H]3CC[C@H]([C@H](N)CF)CC3)[C@@H]2C(=O)Nc2ccc3oc(C(=O)OCC(C)C)cc3c2)CC1 (stereo partly shown) [Example 201]		45	
CC(C)C(=O)O[C@@H](C)OC(=O)N[C@H](CF)[C@H]1CC[C@H](C(=O)N2CC[C@@H](C3CCCCC3)[C@H]2C(=O)Nc2ccc(-c3nnn[nH]3)cc2)CC1 [Example 205, (1R)-1-({[(1S)-1-(trans-4-{[(2S,3S)-3-Cyclohexyl-2-{[4-(1H-tetrazol-5-yl)phenyl]carbamoyl}pyrrolidin-1-yl]carbonyl}cyclohexyl)-2-fluoroethyl]carbamoyl}oxy)ethyl 2-methylpropanoate]		3.5	Residual percentage (%) Human plasma [4]: 60%
